Measured values taken from US10723730B2, “Solid forms of a selective CDK4/6 inhibitor” (PFIZER INC., priority 2013, dated 2020).

What was measured:
[1] = free base prepared by traditional salt break procedure; cited from earlier work
[2] = particle size analysis by laser diffraction; type: physicochemical
Experimental: Particle sizes for the recrystallized materials were assessed using laser diffraction methods. Laser diffraction is recognized by standards and guidance agencies including ISO and ASTM and is widely used to determine particle size distributions. In conducting the assessment, the sample is passed through a laser beam which results in laser light scattered at a range of angles. Detectors placed at fixed angles measure the intensity of light scattered at that position. A mathematical model (Mie or Fraunhoffer Theory) is then applied to generate a particle size distribution.
The particle size was analyzed using the laser diffraction (or small angle light scattering) technique by dispersing the dry sample powder with compressed air. Specifically, the particle size distribution was analyzed using the Sympatec HELOS RODOS system equipped with a Vibri dry powder feeder. The powder sample was dispersed with a dispersion pressure of 0.5 bar. In some instances, an Aspiros micro-dosing device was used, and the powder sample was dispersed with a dispersion pressure of 0.2 bar. A suitable lens was selected to cover the particle size range of each sample.

[3] = kinetic solubility measurements (dissolution temperature); type: physicochemical; details: 25 mg/mL, max 110° C.
Experimental: In an initial room temperature solubility screening study, a total of 23 solvents were screened. […] Subsequent targeted higher temperature solubility studies were conducted.

[4] = MASS (Material Adhesion Screen for Sticking) Punch; type: physicochemical; details: 10% API in standard blend (89.75% Avicel PH102, 0.25% magnesium stearate); up to 100 compressions
Text: The MASS (Material Adhesion Screen for Sticking) Punch was developed in-house to quantitatively assess the sticking propensity of tablet formulations by weighing the amount of adhered powder on removable punch tip after a series of compressions. This test enables formulators to objectively and quickly evaluate the risk of punch sticking during drug product development and troubleshoot sticking observed during clinical tablet manufacturing. To prepare the sample for MASS Punch testing, 10 g of API was diluted in a lightly lubricated standard blend (10% API, 89.75% Avicel PH102 and 0.25% magnesium stearate) and bottle blended (500 mL amber glass bottle) for 500 rotations. The weight of powder adhered to the removable punch tip (½″ round flat faced) was assessed using a microbalance periodically up to 100 compressions of ˜250 mgW tablets at a target solid fraction of 0.85.

[5] = UPLC/MS testing of the saturated solution; type: physicochemical; details: saturated solution from experiments #3 (NMP) and #11 (10% n-BuOH/NMP) of Table 6
[6] = small-scale crystallization studies; type: physicochemical; details: 50 mg/mL, 10 mg scale, warmed to reflux
Experimental: A series of small-scale crystallization experiments was run to identify a potential recrystallization solvent system as well as to assess the impact of solvent on the shape of the free base primary particles isolated. An initial set of 14 screening studies were run on a 10 mg scale using sealed vials and an external heat source to warm the 50 mg/mL samples up to reflux temperature. Visual observation identified the samples that went into solution, and photomicroscopy was used to characterize the particles produced.

[7] = physical properties of free base isolated from standard salt break process; type: physicochemical; details: free base isolated directly from a standard salt break process
Text: As punch sticking is related to API surface area, API particle size control is critical for minimizing sticking during drug product manufacturing. […] Free base API with similarly poor physical properties was produced by free basing of the existing isethionate salt API or by neutralization of the in situ salt formed in the final step of the API synthesis. In either process, small API primary particles were produced due to the rapid crystallization caused by the dramatic change in solubility with adjustment of the pH.

In the case of `CC(=O)c1c(C)c2cnc(Nc3ccc(N4CCNCC4)cn3)nc2n(C2CCCC2)c1=O` [compound 1, 6-acetyl-8-cyclopentyl-5-methyl-2-(5-piperazin-1-yl-pyridin-2-ylamino)-8H-pyrido[2,3-d]pyrimidin-7-one], the “bioavailability in animal studies” value [1] is listed as “low”, the “Particle size D [4, 3]” value ([2]; 0.2 Bar ASPIROS dispersion) is listed as 21.33 μm and the “Particle size D [v, 0.1]” value ([2]; 0.2 Bar ASPIROS dispersion) is listed as 5.21 μm. The “Particle size D [v, 0.5]” value ([2]; 0.2 Bar ASPIROS dispersion) was 17.00 μm, the “Particle size D [v, 0.9]” value ([2]; 0.2 Bar ASPIROS dispersion) was 43.59 μm and the D90 ([2]; Table 11) was “approximately 45 μm”. For the same molecule, the “Dissolution Temp.” value ([3]; 1:1:8 propylene glycol/n-BuOH/anisole (v/v)) was 91.2 °C, the “Dissolution Temp.” value ([3]; 2:1:7 propylene glycol/n-BuOH/anisole (v/v)) was 84.1 °C and the “Dissolution Temp.” value ([3]; 10% 1,4-butanediol/anisole (v/v)) was 109.8 °C. For the same molecule, the “Dissolution Temp.” value ([3]; 10% n-BuOH/Anisole (v/v)) was over 110° ° C, the “Dissolution Temp.” value ([3]; 10% n-BuOH/NMP (v/v)) was 103.7 °C and the “Dissolution Temp.” value ([3]; 20% n-BuOH/Anisole (v/v)) was 109.7 °C. For the same molecule, the “Dissolution Temp.” value ([3]; 25% 1,4-butanediol/anisole (v/v)) was 104.8 °C, the “Dissolution Temp.” value ([3]; 25% n-BuOH/NMP (v/v)) was over 110° ° C and the “Dissolution Temp.” value ([3]; 40% n-BuOH/Anisole (v/v)) was 101.4 °C. The “Dissolution Temp.” value ([3]; Anisole) was over 110° ° C, the “Dissolution Temp.” value ([3]; DMAc) was over 110° ° C and the “Dissolution Temp.” value ([3]; DMF) was over 110° ° C. For the same molecule, the “Dissolution Temp.” value ([3]; DMSO) was over 110° ° C, the “Dissolution Temp.” value ([3]; NMP) was 97.9 °C and the “Dissolution Temp.” value ([3]; n-BuOH) was over 110° ° C. For the same molecule, the “Dissolution Temp.” value ([3]; n-Butyl acetate) was over 110° ° C, the “MASS Punch profile (sticking propensity)” value [4] was “positive response” and the “chemical stability in solution (impurity peak by UPLC/MS)” value [5] was “degradation occurred”. The Results of recrystallization ([6]; Anisole) was “large particles (lathes or tomahawk shape)”, the Results of recrystallization ([6]; Chlorobenzene) was “small irregular shaped particles” and the Results of recrystallization ([6]; Cyclopentylmethyl ether) was “did not dissolve”. For the same molecule, the Results of recrystallization ([6]; DMF) was “small needle shaped particles”, the Results of recrystallization ([6]; Mesitylene) was “small needle shaped particles” and the Results of recrystallization ([6]; NMP) was “small irregular shaped particles”. For the same molecule, the Results of recrystallization ([6]; Propylene glycol) was “small irregular shaped particles”, the Results of recrystallization ([6]; Pyridine) was “small lathe shaped particles” and the Results of recrystallization ([6]; Sulfolane) was “small irregular shaped particles”. For the same molecule, the Results of recrystallization ([6]; Toluene) was “did not dissolve”, the Results of recrystallization ([6]; Trifluorotoluene) was “did not dissolve” and the Results of recrystallization ([6]; m-Xylene) was “small/medium tomahawk shaped particles”. For the same molecule, the Results of recrystallization ([6]; n-Butanol) was “did not dissolve”, the Results of recrystallization ([6]; n-Butyl Acetate) was “did not dissolve” and the “size of hard agglomerates” value [7] was “approximately 500 microns”.
